Experiments:
Oryctolagus cuniculus = species on record: Oryctolagus cuniculus; test: Inhibition of K+ induced contraction of rabbit aorta; assay type: functional; details: read-out: I50
[1] = Inhibition of [3H]D-cis-diltiazem binding to calcium channel of isolated guinea pig skeletal muscle microsomal preparation; assay type: microsomes, Cavia porcellus, Muscle tissue

COc1ccc([C@@H]2CC3c4ccccc4C2C[C@@]32CCNC2)cc1 (stereo partly specified)
IC50 (Oryctolagus cuniculus): 950 nM
Kd [1]: 330 nM

COc1ccc([C@@H]2CC3c4ccccc4C2C[C@]32CCNC2)cc1 (stereo partly specified)
IC50 (Oryctolagus cuniculus): 2000 nM
Kd [1]: 1260 nM

COc1ccc([C@@H]2Sc3ccccc3N(CCN(C)C)C(=O)[C@@H]2OC(C)=O)cc1 [DILTIAZEM]
IC50 (Oryctolagus cuniculus): 1800 nM
Kd [1]: 380 nM

From ChEMBL document CHEMBL1126338, “The synthesis of a conformationally rigid calcium channel blocker” (Bioorg Med Chem Lett, 1992)
